Measurements published in ChEMBL document CHEMBL3132769, “Fragment growing to retain or alter the selectivity of anchored kinase hinge-binding fragments” (Medchemcomm, 2014).

Tests used:
[1] = target: T1, Protein kinase C zeta type (Homo sapiens) (UniProt Q05513); assay: Inhibition of human full length PKC zeta expressed in baculovirus assessed as substrate phosphorylation using fluorescence-labelled peptides as substrate at 0.06 uM after 90 mins by microfluidic peptide phosphorylation assay
T1 sequence (whole entry): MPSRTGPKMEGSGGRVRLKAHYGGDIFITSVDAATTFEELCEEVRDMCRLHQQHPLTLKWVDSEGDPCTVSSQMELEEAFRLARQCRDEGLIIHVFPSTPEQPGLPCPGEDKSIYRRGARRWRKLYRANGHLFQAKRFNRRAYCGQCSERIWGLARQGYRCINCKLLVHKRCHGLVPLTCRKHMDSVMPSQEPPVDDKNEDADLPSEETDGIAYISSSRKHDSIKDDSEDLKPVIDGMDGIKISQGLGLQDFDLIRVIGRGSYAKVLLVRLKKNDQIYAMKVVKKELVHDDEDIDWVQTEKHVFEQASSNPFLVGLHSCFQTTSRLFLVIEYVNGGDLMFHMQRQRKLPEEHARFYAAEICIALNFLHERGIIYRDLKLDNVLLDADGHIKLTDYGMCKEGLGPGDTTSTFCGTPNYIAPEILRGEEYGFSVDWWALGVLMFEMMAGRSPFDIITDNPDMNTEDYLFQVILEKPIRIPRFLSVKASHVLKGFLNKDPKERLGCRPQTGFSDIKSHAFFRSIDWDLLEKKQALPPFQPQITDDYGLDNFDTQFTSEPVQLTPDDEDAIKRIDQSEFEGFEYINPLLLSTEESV

[2] = target: T2, Serine/threonine-protein kinase Sgk2 (Homo sapiens) (UniProt Q9HBY8); assay: Inhibition of human full length SGK2 expressed in baculovirus assessed as substrate phosphorylation using fluorescence-labelled peptides as substrate at 0.06 uM after 90 mins by microfluidic peptide phosphorylation assay
T2 sequence (whole entry): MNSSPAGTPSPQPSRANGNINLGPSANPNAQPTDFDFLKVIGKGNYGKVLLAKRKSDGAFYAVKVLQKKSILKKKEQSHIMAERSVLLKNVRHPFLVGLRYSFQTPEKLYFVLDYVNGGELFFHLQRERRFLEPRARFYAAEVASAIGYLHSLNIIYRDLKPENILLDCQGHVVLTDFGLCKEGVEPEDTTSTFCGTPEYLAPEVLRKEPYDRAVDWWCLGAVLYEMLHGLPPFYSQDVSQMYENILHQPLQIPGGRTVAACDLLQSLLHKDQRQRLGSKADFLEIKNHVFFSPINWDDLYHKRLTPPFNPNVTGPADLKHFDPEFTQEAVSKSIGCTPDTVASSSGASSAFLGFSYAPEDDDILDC

[3] = target: Fibroblast growth factor receptor 1 (Homo sapiens) (UniProt P11362); assay: Inhibition of human FGFR1 catalytic domain expressed in baculovirus assessed as substrate phosphorylation using fluorescence-labelled peptides as substrate at 0.06 uM after 90 mins by microfluidic peptide phosphorylation assay
[4] = target: Serine/threonine-protein kinase pim-1 (Homo sapiens) (UniProt P11309); assay: Inhibition of human full length PIM1 expressed in baculovirus assessed as substrate phosphorylation using fluorescence-labelled peptides as substrate at 0.06 uM after 90 mins by microfluidic peptide phosphorylation assay
[5] = target: Tyrosine-protein kinase Fyn (Homo sapiens) (UniProt P06241); settings: 0.1 uM
Description: Inhibition of human full length FYN expressed in baculovirus assessed as substrate phosphorylation using fluorescence-labelled peptides as substrate at 0.1 uM after 90 mins by microfluidic peptide phosphorylation assay

[6] = target: T3, Aurora kinase C (Homo sapiens) (UniProt Q9UQB9); assay: Inhibition of human full length AurC expressed in baculovirus assessed as substrate phosphorylation using fluorescence-labelled peptides as substrate at […] after 90 mins by microfluidic peptide phosphorylation assay
T3 sequence (whole entry): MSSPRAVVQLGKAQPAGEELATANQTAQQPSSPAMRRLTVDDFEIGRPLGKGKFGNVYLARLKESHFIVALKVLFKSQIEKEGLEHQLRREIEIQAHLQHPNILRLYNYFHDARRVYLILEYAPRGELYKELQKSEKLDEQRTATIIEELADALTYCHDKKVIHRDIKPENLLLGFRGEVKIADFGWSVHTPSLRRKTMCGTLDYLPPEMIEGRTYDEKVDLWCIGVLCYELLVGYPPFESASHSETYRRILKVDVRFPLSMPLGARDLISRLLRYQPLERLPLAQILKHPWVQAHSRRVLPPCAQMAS

[7] = target: Protein kinase C beta type (Homo sapiens) (UniProt P05771); assay: Inhibition of human truncated PKC beta1 expressed in baculovirus assessed as substrate phosphorylation using fluorescence-labelled peptides as substrate at 70 uM after 90 mins by microfluidic peptide phosphorylation assay
[8] = target: Insulin receptor (Homo sapiens) (UniProt P06213); assay: Inhibition of human INSR catalytic domain expressed in baculovirus assessed as substrate phosphorylation using fluorescence-labelled peptides as substrate at 70 uM after 90 mins by microfluidic peptide phosphorylation assay
[9] = target: Serine/threonine-protein kinase pim-1 (Homo sapiens) (UniProt P11309); assay: Inhibition of human full length PIM1 expressed in baculovirus assessed as substrate phosphorylation using fluorescence-labelled peptides as substrate at 8 uM after 90 mins by microfluidic peptide phosphorylation assay
[10] = target: Tyrosine-protein kinase Fyn (Homo sapiens) (UniProt P06241); assay: Inhibition of human full length FYN expressed in baculovirus assessed as substrate phosphorylation using fluorescence-labelled peptides as substrate at 8 uM after 90 mins by microfluidic peptide phosphorylation assay

Chain of Serine/threonine-protein kinase pim-1 (Homo sapiens) (P11309 whole entry, looked up): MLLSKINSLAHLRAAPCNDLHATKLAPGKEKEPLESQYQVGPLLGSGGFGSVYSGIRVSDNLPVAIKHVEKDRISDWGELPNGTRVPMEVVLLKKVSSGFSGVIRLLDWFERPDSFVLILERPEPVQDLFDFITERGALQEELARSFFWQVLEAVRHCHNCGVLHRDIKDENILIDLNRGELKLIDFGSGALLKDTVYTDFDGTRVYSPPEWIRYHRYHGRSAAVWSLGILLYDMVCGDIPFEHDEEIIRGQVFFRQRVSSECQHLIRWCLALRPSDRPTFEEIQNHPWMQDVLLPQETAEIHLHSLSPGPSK
Chain of Tyrosine-protein kinase Fyn (Homo sapiens) (P06241 2-537 limits assumed): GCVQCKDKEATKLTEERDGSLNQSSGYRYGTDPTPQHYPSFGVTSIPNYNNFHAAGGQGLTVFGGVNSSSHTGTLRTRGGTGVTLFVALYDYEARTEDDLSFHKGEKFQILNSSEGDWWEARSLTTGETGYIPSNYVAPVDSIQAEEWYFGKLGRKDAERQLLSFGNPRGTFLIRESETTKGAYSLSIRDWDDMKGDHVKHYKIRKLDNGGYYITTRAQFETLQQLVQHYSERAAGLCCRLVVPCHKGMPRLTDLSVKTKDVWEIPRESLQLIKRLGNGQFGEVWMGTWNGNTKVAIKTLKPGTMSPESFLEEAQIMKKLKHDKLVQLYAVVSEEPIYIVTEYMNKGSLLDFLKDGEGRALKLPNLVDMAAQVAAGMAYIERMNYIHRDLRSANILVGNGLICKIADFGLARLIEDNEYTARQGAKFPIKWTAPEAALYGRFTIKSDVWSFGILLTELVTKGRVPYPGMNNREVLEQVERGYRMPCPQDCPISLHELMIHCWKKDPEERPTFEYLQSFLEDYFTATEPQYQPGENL
Chain of Fibroblast growth factor receptor 1 (Homo sapiens) (P11362 22-822 limits assumed): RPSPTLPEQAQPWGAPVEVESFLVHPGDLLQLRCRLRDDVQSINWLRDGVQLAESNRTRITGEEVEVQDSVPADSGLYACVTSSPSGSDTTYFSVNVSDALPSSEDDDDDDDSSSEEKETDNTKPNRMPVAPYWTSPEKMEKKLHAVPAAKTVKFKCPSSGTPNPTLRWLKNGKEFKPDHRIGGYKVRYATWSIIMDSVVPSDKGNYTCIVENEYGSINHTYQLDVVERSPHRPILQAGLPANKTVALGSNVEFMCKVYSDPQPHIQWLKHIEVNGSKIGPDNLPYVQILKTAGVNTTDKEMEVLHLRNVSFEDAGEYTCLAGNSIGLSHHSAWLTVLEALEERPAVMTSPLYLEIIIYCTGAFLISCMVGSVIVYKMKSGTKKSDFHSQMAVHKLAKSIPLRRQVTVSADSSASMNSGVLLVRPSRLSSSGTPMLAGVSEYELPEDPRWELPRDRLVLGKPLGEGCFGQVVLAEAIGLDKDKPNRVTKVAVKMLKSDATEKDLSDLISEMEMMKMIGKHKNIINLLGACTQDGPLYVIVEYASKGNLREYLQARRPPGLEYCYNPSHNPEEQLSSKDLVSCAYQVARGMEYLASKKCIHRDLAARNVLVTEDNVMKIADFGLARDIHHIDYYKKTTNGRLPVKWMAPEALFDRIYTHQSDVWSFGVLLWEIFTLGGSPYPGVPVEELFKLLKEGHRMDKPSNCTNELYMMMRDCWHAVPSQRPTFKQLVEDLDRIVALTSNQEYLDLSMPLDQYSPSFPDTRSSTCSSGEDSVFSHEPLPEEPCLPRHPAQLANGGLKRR
Chain of Protein kinase C beta type (Homo sapiens) (P05771 2-671 limits assumed): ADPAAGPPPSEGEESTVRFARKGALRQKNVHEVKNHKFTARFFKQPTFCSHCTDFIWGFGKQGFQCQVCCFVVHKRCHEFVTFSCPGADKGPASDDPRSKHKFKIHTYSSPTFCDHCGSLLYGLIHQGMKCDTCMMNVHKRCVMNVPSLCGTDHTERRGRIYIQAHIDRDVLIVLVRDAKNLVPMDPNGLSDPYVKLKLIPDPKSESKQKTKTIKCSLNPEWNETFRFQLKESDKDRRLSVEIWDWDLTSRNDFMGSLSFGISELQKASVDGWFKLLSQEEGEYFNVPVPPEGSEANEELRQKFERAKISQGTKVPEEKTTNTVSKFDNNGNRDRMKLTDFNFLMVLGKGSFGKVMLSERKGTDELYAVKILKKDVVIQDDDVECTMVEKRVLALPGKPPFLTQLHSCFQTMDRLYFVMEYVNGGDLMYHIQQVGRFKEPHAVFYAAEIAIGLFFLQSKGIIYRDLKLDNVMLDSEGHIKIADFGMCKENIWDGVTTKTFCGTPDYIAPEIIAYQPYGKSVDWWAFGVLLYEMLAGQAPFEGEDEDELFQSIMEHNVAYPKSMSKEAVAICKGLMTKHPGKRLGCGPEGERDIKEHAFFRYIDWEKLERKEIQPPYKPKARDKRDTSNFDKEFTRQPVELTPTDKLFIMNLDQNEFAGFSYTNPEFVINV

`NC1(Cc2ccc(Cl)cc2)CCN(c2ncnc3[nH]ccc23)CC1` was tested, and the inhibition [1] was 0%, the inhibition [2] was 9% and the inhibition [3] was 0%. It also gave an inhibition [4] of 0%.

Work on `C[C@H](CN(C)C)Oc1nc(Nc2cc3cccc(Cl)c3cn2)cnc1C#N` yielded an inhibition [5] of 0%.

`COC(=O)c1cnc(Nc2cnc(C#N)cn2)cc1NCC1CCNCC1` showed an inhibition [6] of 7.5%.

Work on `CNCc1ccc(-c2ncnc3[nH]cnc23)cc1` yielded an inhibition [7] of 73.5% and an inhibition [8] of 0%.

`NCC1CCN(c2ncnc3[nH]ccc23)CC1` was tested, and the inhibition [9] was 9% and the inhibition [10] was 1%.
